Source: US9828342B2, “Isatin derivatives, pharmaceutical compositions thereof, and methods of use thereof” (CITY OF HOPE, priority 2012, dated 2017)
Where two headings read alike, the source gives them in different places. Blank lines part the entries; values can stand above or below the molecule they belong to.

Columns and labels:
Format in all cases: cell-based
[1] = test system: DU145 prostate cancer cells; test: MTS cell viability assay in DU145 prostate cancer cells
Procedure: (§1) Then, MTS assays for cell viability were carried out to determine the IC50 values. Four samples were tested for each isatin derivative at each concentration in each cell line, and the averaged data were shown in Table 2a and FIGS. 1˜4.
(§2) IC50 of values of isatin derivatives Compounds 101˜123 were determined in cancer cell lines DU145 and A2058 respectively.

[2] = test system: A2058 human melanoma cells; test: MTS cell viability assay in A2058 melanoma cells
Procedure: as §1, §2

[3] = test system: OVCAR5 ovarian cancer cells; test: MTS cell viability assay in OVCAR5 ovarian cancer cells; conditions: Homo sapiens, OVCAR-5, OVCAR5, 48 hr, 1% DMSO
Procedure: (§3) Each type of cells (5,000 or 10,000 cells/well) were treated with different concentration (0.1 μM to 20 μM in 1% DMSO of cisplatin or Compound 2, 9, 12, 16 or 22 respectively for 48 hr). Then, MTS assays for cell viability were carried out to determine the IC50 values. Four samples were tested for each test compound at each concentration for each type of cells, and the averaged data were shown in Table 4 and FIGS. 6-8.

[4] = test system: A2780 cisplatin-resistant ovarian cancer cells; test: MTS cell viability assay in A2780 cisplatin-resistant ovarian cancer cells; conditions: Homo sapiens, A2780, 48 h, A2780 cisplatin-resistant, 48 hr, 1% DMSO, MTS
Procedure: as §3

[5] = Homo sapiens, DU-145, 48 h, DU145, compound in DMSO, 48 hr, MTS (Table 2b), read-out: IC50 value, DMSO, DU145
[6] = Homo sapiens, A2058, 48 h, A2058, compound in DMSO, 48 hr, MTS (Table 2b), read-out: IC50 value, DMSO, A2058
[7] = Homo sapiens, DU-145, 48 h, DU145, 48 hr, 0.05 to 10 μM in 1% DMSO, MTS (Table 2a), read-out: DU145 IC50
[8] = Homo sapiens, A2058, 48 h, 0.05 to 10 μM in 1% DMSO, MTS (Table 2a), read-out: A2058 IC50
[9] = DU145, compound in DMSO, 48 hr, MTS (Table 2b), read-out: IC50 value, DMSO, DU145
[10] = Homo sapiens, DU-145, 48 h, DU145, compound in water, 48 hr, MTS (Table 2b), read-out: IC50 value, Water, DU145
[11] = A2058, compound in DMSO, 48 hr, MTS (Table 2b), read-out: IC50 value, DMSO, A2058
[12] = Homo sapiens, A2058, 48 h, A2058, compound in water, 48 hr, MTS (Table 2b), read-out: IC50 value, Water, A2058

SMILES: O=C1C(=O)N(CCOCCO)c2ccc(-c3cccnc3)cc21 [Compound 11]
IC50 [1, 7]: > 5000 nM | IC50 [2, 8]: > 5000 nM

SMILES: CN1C(=O)C(=O)c2cc(-c3cccnc3)ccc21 [Compound 7]
IC50 [1, 7]: 4300 nM | IC50 [2, 8]: 4200 nM

SMILES: O=C1C(=O)N(CCCc2ccccc2)c2ccc(-c3cncnc3)cc21 [Compound 26]
IC50 [1, 7]: 530 nM | IC50 [2, 8]: 700 nM

SMILES: O=C1C(=O)N(Cc2ccccc2)c2cc(Br)ccc21 [Compound 3, N-benzyl-6-bromoindoline-2,3-dione]
IC50 [1, 7]: 8500 nM | IC50 [2, 8]: 8400 nM

SMILES: O=C1C(=O)N(Cc2ccccn2)c2ccc(-c3cccnc3)cc21 [Compound 102]
IC50 [1, 9]: 4100 nM | IC50 [2, 11]: 3700 nM

SMILES: O=C1C(=O)N(C/C=C/c2ccccc2)c2ccc(-c3cccc([N+](=O)[O-])c3)cc21 [Compound 101]
IC50 [1, 5]: 2100 nM | IC50 [2, 6]: 2200 nM

SMILES: O=C1C(O)c2cc(-c3cccnc3)ccc2N1Cc1ccccc1 (stereo not shown) [Compound 13, N-Benzyl-3-hydroxy-5-(pyridin-3-yl)indoline-2-one]
IC50 [1, 7]: 2500 nM | IC50 [2, 8]: 2300 nM

SMILES: O=C1C(=O)N(CCCc2ccccc2)c2ccc(-c3ccco3)cc21 [Compound 25]
IC50 [1, 7]: 1500 nM | IC50 [2, 8]: 2000 nM

SMILES: O=C1C(=O)N(C/C=C/c2ccccc2)c2ccc(-c3cncnc3)cc21 [Compound 27]
IC50 [1, 7]: 360 nM | IC50 [2, 8]: 400 nM

SMILES: O=C1C(=O)N(CCCc2ccccc2)c2ccc(-c3ccsc3)cc21 [Compound 24]
IC50 [1, 7]: 2500 nM | IC50 [2, 8]: 2900 nM

SMILES: O=C1C(=O)N(Cc2ccccc2)c2ccc(I)cc21 [Compound 4, N-benzyl-5-iodoindoline-2,3-dione]
IC50 [1, 7]: 2400 nM | IC50 [2, 8]: 3800 nM

SMILES: O=C1C(=O)N(C/C=C/c2ccccc2)c2ccc(-c3cccnc3F)cc21 [Compound 31]
IC50 [1, 7]: 260 nM | IC50 [2, 8]: 350 nM

SMILES: O=C1C(=O)N(CCCc2ccccc2)c2ccc(-c3ccncc3)cc21 [Compound 28]
IC50 [1, 7]: 1300 nM | IC50 [2, 8]: 1600 nM

SMILES: O=C1C(=O)N(Cc2ccsc2)c2ccc(-c3cccnc3)cc21 [Compound 16, N-(3-Thienylmethyl)-5-(pyridin-3-yl)indoline-2,3-dione]
IC50 [1, 7]: 900 nM | IC50 [3]: 1700 nM | IC50 [4]: 500 nM | IC50 [2, 8]: 1800 nM

SMILES: O=C1C(=O)N(C/C=C/c2ccccc2)c2ccc(-c3ccc(F)nc3)cc21 [Compound 29]
IC50 [1, 7]: 330 nM | IC50 [2, 8]: 300 nM

SMILES: CO/N=C1/C(=O)N(Cc2ccccc2)c2ccc(-c3cccnc3)cc21 [Compound 34]
IC50 [1, 7]: > 5000 nM | IC50 [2, 8]: > 5000 nM

SMILES: O=C1C(=O)N(CCc2ccccc2)c2ccc(-c3cccnc3)cc21 [Compound 8]
IC50 [1, 7]: 5000 nM | IC50 [2, 8]: > 5000 nM

SMILES: O=C1C(=O)N(Cc2ccccc2)c2ccc(-c3ccccc3)cc21 [Compound 32]
IC50 [1, 7]: 4100 nM | IC50 [2, 8]: 1900 nM

SMILES: O=C1C(=O)N(CCO)c2ccc(-c3cccnc3)cc21 [Compound 10]
IC50 [1, 7]: > 5000 nM | IC50 [2, 8]: > 5000 nM

SMILES: CC(=O)OC1C(=O)N(Cc2ccccc2)c2ccc(-c3cccnc3)cc21 (stereo not shown) [Compound 14, 3-Acetoxy-N-Benzyl-5-(pyridin-3-yl)indoline-2-one]
IC50 [1, 7]: > 5000 nM | IC50 [2, 8]: > 5000 nM

SMILES: O=C1C(=O)N(Cc2ccccc2)c2cccc(Br)c21 [Compound 5]
IC50 [1, 7]: > 10000 nM | IC50 [2, 8]: > 10000 nM

SMILES: O=C1C(=O)N(C/C=C/c2ccccc2)c2ccc(-c3ccsc3)cc21 [Compound 30]
IC50 [1, 7]: 870 nM | IC50 [2, 8]: 1400 nM

SMILES: C[Si](C)(C)CCOCN1C(=O)C(=O)c2cc(I)ccc21 [Compound 6]
IC50 ([1]; Homo sapiens, DU-145, DU145, 48 hr, 0.05 to 10 μM in 1% DMSO, MTS (Table 2a), read-out: DU145 IC50): 4600 nM | IC50 ([2]; Homo sapiens, A2058, 48 hr, 0.05 to 10 μM in 1% DMSO, MTS (Table 2a), read-out: A2058 IC50): 6900 nM

SMILES: O=C1/C(=N/O)c2cc(-c3cccnc3)ccc2N1Cc1ccccc1 [Compound 33]
IC50 [1, 7]: > 5000 nM | IC50 [2, 8]: > 5000 nM

SMILES: O=C1C(=O)N(Cc2ccccc2)c2cc(-c3ccccc3)ccc21 [Compound 1]
IC50 [1, 7]: > 10000 nM | IC50 [2, 8]: > 10000 nM

SMILES: O=C1Cc2cc(-c3cccnc3)ccc2N1Cc1ccccc1 [Compound 15, N-Benzyl-5-(pyridin-3-yl)indoline-2-one]
IC50 [1, 7]: > 5000 nM | IC50 [2, 8]: > 5000 nM

SMILES: CCCc1ccc2c(c1)C(=O)C(=O)N2CCCc1ccccc1 [Compound 20]
IC50 [1, 7]: > 5000 nM | IC50 [2, 8]: 2500 nM

SMILES: O=C1C(=O)N(Cc2cccs2)c2ccc(-c3cccnc3)cc21 [Compound 12, N-(2-Thienylmethyl)-5-(pyridin-3-yl)indoline-2,3-dione]
IC50 [1, 7]: 910 nM | IC50 [3]: 2200 nM | IC50 [4]: 900 nM | IC50 [2, 8]: 2000 nM

SMILES: Cc1ccc2c(c1)C(=O)C(=O)N2CCCc1ccccc1 [Compound 19]
IC50 [1, 7]: > 5000 nM | IC50 [2, 8]: > 5000 nM

SMILES: O=C1C(=O)N(CCCc2ccccc2)c2ccc(-c3ccccc3)cc21 [Compound 23]
IC50 [1, 7]: 4200 nM | IC50 [2, 8]: 5900 nM

SMILES: CC(C)c1ccc2c(c1)C(=O)C(=O)N2CCCc1ccccc1 [Compound 21]
IC50 [1, 7]: > 5000 nM | IC50 [2, 8]: 3200 nM

Other lines, results leading:

IC50 [1, 5]: 580 nM | IC50 [2, 6]: 380 nM
SMILES: O=C1C(=O)N(Cc2ccc(-c3cccnc3)cc2)c2ccc(-c3cccnc3)cc21 [Compound 122]

IC50 [1, 5]: > 5000 nM | IC50 [2, 6]: > 5000 nM
SMILES: CCN(CCN1C(=O)C(=O)c2cc(-c3cccnc3)ccc21)c1ccccc1 [Compound 112]

IC50 [1, 9]: 2300 nM | IC50 [1, 10]: 4100 nM | IC50 [2, 11]: 1200 nM | IC50 [2, 12]: 1900 nM
SMILES: O=C1C(=O)N(Cc2cccc(-c3cccnc3)c2)c2ccc(-c3cccnc3)cc21 [Compound 120]

IC50 [1, 5]: 3400 nM | IC50 [2, 6]: 1900 nM
SMILES: O=C1C(=O)N(Cc2ccccc2I)c2ccc(-c3cccnc3)cc21 [Compound 117]

IC50 [1, 9]: 2500 nM | IC50 [1, 10]: 4600 nM | IC50 [2, 11]: 4800 nM | IC50 [2, 12]: 4700 nM
SMILES: O=C1C(=O)N(CCCc2cccnc2)c2ccc(-c3cccnc3)cc21 [Compound 105]

IC50 [1, 9]: 480 nM | IC50 [1, 10]: 500 nM | IC50 [2, 11]: 580 nM | IC50 [2, 12]: 840 nM
SMILES: O=C1C(=O)N(C/C=C/c2ccccn2)c2ccc(-c3cccnc3)cc21 [Compound 111]

IC50 [1, 5]: 470 nM | IC50 [2, 6]: 580 nM
SMILES: O=C1C(=O)N(C/C=C/c2ccccn2)c2ccc(-c3cccnc3)cc21 [Compound 110]

IC50 [1, 9]: 600 nM | IC50 [1, 10]: 2300 nM | IC50 [2, 11]: 380 nM | IC50 [2, 12]: 800 nM
SMILES: O=C1C(=O)N(Cc2ccc(-c3cccnc3)cc2)c2ccc(-c3cccnc3)cc21 [Compound 123]

IC50 [1, 5]: 740 nM | IC50 [2, 6]: 1400 nM
SMILES: O=C1C(=O)N(C/C=C/c2ccncc2)c2ccc(-c3cccnc3)cc21 [Compound 106]

IC50 [1, 5]: 500 nM | IC50 [2, 6]: 350 nM
SMILES: O=C1C(=O)N(Cc2ccc(I)cc2)c2ccc(-c3cccnc3)cc21 [Compound 121]

IC50 [1, 5]: 4300 nM | IC50 [2, 6]: 4400 nM
SMILES: O=C1C(=O)N(Cc2ccccn2)c2ccc(-c3cccnc3)cc21 [Compound 103]

IC50 [1, 5]: 450 nM | IC50 [2, 6]: 500 nM
SMILES: O=C1C(=O)N(C/C=C/c2cccnc2)c2ccc(-c3cccnc3)cc21 [Compound 108]

IC50 [1, 5]: > 5000 nM | IC50 [2, 6]: 3300 nM
SMILES: O=C1C(=O)N(Cc2ccccc2-c2cccnc2)c2ccc(-c3cccnc3)cc21 [Compound 118]

IC50 [1, 5]: 1000 nM | IC50 [2, 6]: 650 nM
SMILES: O=C1C(=O)N(C/C=C/c2ccc3ccccc3n2)c2ccc(-c3cccnc3)cc21 [Compound 114]

IC50 [1, 5]: 660 nM | IC50 [2, 6]: 390 nM
SMILES: O=C1C(=O)N(C/C=C/c2cccnc2Cl)c2ccc(-c3cccnc3)cc21 [Compound 116]

IC50 [1, 5]: 2300 nM | IC50 [2, 6]: 1400 nM
SMILES: O=C1C(=O)N(Cc2cccc(-c3cccnc3)c2)c2ccc(-c3cccnc3)cc21 [Compound 119]

IC50 [1, 10]: > 5000 nM | IC50 [2, 12]: > 5000 nM
SMILES: CCN(CCN1C(=O)C(=O)c2cc(-c3cccnc3)ccc21)c1ccccc1 [Compound 113]

IC50 [1, 9]: 960 nM | IC50 [1, 10]: 740 nM | IC50 [2, 11]: 2000 nM | IC50 [2, 12]: 1600 nM
SMILES: O=C1C(=O)N(C/C=C/c2ccncc2)c2ccc(-c3cccnc3)cc21 [Compound 107]

IC50 [1, 9]: 1400 nM | IC50 [1, 10]: 1900 nM | IC50 [2, 11]: 680 nM | IC50 [2, 12]: 1900 nM
SMILES: O=C1C(=O)N(C/C=C/c2ccc3ccccc3n2)c2ccc(-c3cccnc3)cc21 [Compound 115]

IC50 [1, 9]: 910 nM | IC50 [2, 11]: 2100 nM
SMILES: O=C1C(=O)N(CCCc2cccnc2)c2ccc(-c3cccnc3)cc21 [Compound 104]
